Source: patent publication US8927246B2, “Method to increase the production of extracellular polymeric substances (EPS) in a Acidithiobacillus ferrooxidans culture by the inhibition of enzymes of tricarboxilic acid cycle” (Universidad de Chile, priority 2010, dated 2015)

Key:
[1] = system: Acidithiobacillus ferrooxidans strain Wenelen; assay: Batch culture of A. ferrooxidans Wenelen with FIC versus control: biomass and EPS production; assay type: cell-based; conditions: for [EPS] ajusted: fitted curve
Description: To compare biomass and EPS production in a Acidithiobacillus ferrooxidans, a culture with FIC and a control one, without FIC, were conducted.
Both cultures were carried in 1 L of a 9K medium described in Table 2, with the addition of 30 g/L of ferrous sulfate, with pH set at 1.8, agitation of 250 rpm and air flux of 1 VVM.
In both cultures, the same initial biomass concentration of 1*10^7 cell/mL was inoculated. In sample 1, 80 μM of FIC was added. Cultures were kept for 288 hours and EPS and biomass concentration was periodically measured. Afterwards, specific productivity of EPS was calculated.

Aconitase (EC 4.2.1.3) = conditions: cited from earlier work
[2] = 80 μM FIC, from hours 48 to 120

Which results are given for fluoroisocitrate [FIC]?
amount of EPS per cell (pg EPS/cell) relative to control ([1]; 80 μM FIC, 192 hours): 18 times; EPS yield (pg EPS/cell) relative to control sample ([1]; 80 μM FIC, at 120 hours of culture): 2 times; biomass relative to control sample ([1]; 80 μM FIC, between 120 and 288 hours): lower by one magnitude order; difference in growth rate or EPS production versus control sample ([1]; 80 μM FIC, first 48 hours): no significant differences; EPS production [1, 2]: strong increase; biomass [1, 2]: remains practically constant; EPS ([1]; 80 μM FIC, time 0.0001 hours): 28 mg/L; cel/ml (biomass concentration) ([1]; 80 μM FIC, time 0.0001 hours): 4.69E+06 cel/ml; pg EPS/cel ([1]; 80 μM FIC, time 0.0001 hours): 5.97 pg EPS/cel; [EPS] ajusted ([1]; 80 μM FIC, time 0.0001 hours): 28.00 mg/L; EPS ([1]; 80 μM FIC, time 24 hours): 33.5 mg/L; cel/ml (biomass concentration) ([1]; 80 μM FIC, time 24 hours): 7.81E+06 cel/ml; pg EPS/cel ([1]; 80 μM FIC, time 24 hours): 4.29 pg EPS/cel; [EPS] ajusted ([1]; 80 μM FIC, time 24 hours): 36.49 mg/L; EPS ([1]; 80 μM FIC, time 48 hours): 74 mg/L; cel/ml (biomass concentration) ([1]; 80 μM FIC, time 48 hours): 6.66E+07 cel/ml; pg EPS/cel ([1]; 80 μM FIC, time 48 hours): 1.11 pg EPS/cel; [EPS] ajusted ([1]; 80 μM FIC, time 48 hours): 109.28 mg/L; EPS ([1]; 80 μM FIC, time 120 hours): 341 mg/L; cel/ml (biomass concentration) ([1]; 80 μM FIC, time 120 hours): 7.69E+07 cel/ml; pg EPS/cel ([1]; 80 μM FIC, time 120 hours): 4.44 pg EPS/cel; [EPS] ajusted ([1]; 80 μM FIC, time 120 hours): 306.36 mg/L; EPS ([1]; 80 μM FIC, time 144 hours): 350 mg/L; cel/ml (biomass concentration) ([1]; 80 μM FIC, time 144 hours): 4.16E+07 cel/ml; pg EPS/cel ([1]; 80 μM FIC, time 144 hours): 8.42 pg EPS/cel; [EPS] ajusted ([1]; 80 μM FIC, time 144 hours): 318.74 mg/L; EPS ([1]; 80 μM FIC, time 168 hours): 372.5 mg/L; cel/ml (biomass concentration) ([1]; 80 μM FIC, time 168 hours): 3.41E+07 cel/ml; pg EPS/cel ([1]; 80 μM FIC, time 168 hours): 10.94 pg EPS/cel; [EPS] ajusted ([1]; 80 μM FIC, time 168 hours): 324.73 mg/L; EPS ([1]; 80 μM FIC, time 192 hours): 348.5 mg/L; cel/ml (biomass concentration) ([1]; 80 μM FIC, time 192 hours): 1.41E+07 cel/ml; pg EPS/cel ([1]; 80 μM FIC, time 192 hours): 24.78 pg EPS/cel; [EPS] ajusted ([1]; 80 μM FIC, time 192 hours): 327.88 mg/L; EPS ([1]; 80 μM FIC, time 216 hours): 315 mg/L; cel/ml (biomass concentration) ([1]; 80 μM FIC, time 216 hours): 1.38E+07 cel/ml; pg EPS/cel ([1]; 80 μM FIC, time 216 hours): 22.91 pg EPS/cel; [EPS] ajusted ([1]; 80 μM FIC, time 216 hours): 329.65 mg/L; EPS ([1]; 80 μM FIC, time 288 hours): 305 mg/L; cel/ml (biomass concentration) ([1]; 80 μM FIC, time 288 hours): 1.94E+07 cel/ml; pg EPS/cel ([1]; 80 μM FIC, time 288 hours): 15.74 pg EPS/cel; [EPS] ajusted ([1]; 80 μM FIC, time 288 hours): 331.83 mg/L; effect on EPS and biomass production in culture ([1]; A. ferroxidans culture): enhanced EPS production in detriment of biomass production; EPS specific productivity versus control ([1]; FIC cultures, after the first 30 hours): significant increase; increase in EPS specific productivity versus control ([1]; FIC cultures, around the 50 hours of culture, exponential growth phase): ~30%; inhibition of aconitase (Aconitase (EC 4.2.1.3)): specifically inhibited
